From ChEMBL document CHEMBL1136305, “Structure-activity relationships within a series of caspase inhibitors: effect of leaving group modifications” (Bioorg Med Chem Lett, 2003)

How the values were obtained:
Caspase-3 (Homo sapiens) = molecular target: T1, Caspase-3 (Homo sapiens) (UniProt P42574); assay: Inhibitory activity against caspase-3 (Csp-3)
T1 sequence (whole entry): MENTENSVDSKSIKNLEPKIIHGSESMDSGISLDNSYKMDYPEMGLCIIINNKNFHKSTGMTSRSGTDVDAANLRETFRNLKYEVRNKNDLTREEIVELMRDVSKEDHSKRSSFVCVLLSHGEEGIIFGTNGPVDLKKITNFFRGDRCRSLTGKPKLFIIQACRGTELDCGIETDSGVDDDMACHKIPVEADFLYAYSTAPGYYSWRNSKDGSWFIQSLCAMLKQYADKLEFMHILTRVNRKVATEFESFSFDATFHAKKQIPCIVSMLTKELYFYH

Caspase-8 (Homo sapiens) = Caspase-8 (Homo sapiens) (UniProt Q14790); assay: Inhibitory activity against caspase-8 (Csp-8)
Chain of Caspase-8 (Homo sapiens) (Q14790 217-374 limits assumed): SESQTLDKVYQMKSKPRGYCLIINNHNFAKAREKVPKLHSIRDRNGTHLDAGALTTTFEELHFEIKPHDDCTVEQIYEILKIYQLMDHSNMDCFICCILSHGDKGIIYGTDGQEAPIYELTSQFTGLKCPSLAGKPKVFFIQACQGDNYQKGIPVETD
Chain of Caspase-8 (Homo sapiens) (Q14790 385-479 limits assumed): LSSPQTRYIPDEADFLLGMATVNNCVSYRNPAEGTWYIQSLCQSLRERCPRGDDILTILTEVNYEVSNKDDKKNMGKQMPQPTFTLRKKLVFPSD

Jurkat = assay: Cellular assay in a Fas-induced model of apoptosis in Jurkat cells; assay type: functional, cell-based; conditions: Homo sapiens
Caspase-1 (Mus musculus) = molecular target: T2, Caspase-1 (Mus musculus) (UniProt P29452); assay: Inhibitory activity against murine caspase-1
T2 sequence (whole entry): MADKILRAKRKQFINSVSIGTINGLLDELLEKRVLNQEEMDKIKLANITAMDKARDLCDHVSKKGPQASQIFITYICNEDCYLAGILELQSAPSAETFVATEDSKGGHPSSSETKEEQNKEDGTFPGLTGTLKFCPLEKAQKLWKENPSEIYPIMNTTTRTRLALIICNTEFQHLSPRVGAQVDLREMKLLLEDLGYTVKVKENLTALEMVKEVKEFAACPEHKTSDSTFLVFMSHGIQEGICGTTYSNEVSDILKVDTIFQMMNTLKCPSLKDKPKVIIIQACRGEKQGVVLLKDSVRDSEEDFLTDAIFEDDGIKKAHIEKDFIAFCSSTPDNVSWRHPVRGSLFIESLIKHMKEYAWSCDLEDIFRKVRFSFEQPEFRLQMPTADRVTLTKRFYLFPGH

Homo sapiens = organism: Homo sapiens; assay: Cellular assay in an inflammation model measuring IL1-beta secretion from isolated human monocytes induced with Staph A; assay type: functional
Caspase-6 (Homo sapiens) = molecular target: T3, Caspase-6 (Homo sapiens) (UniProt P55212); assay: Inhibitory activity against caspase-6 (Csp-6)
T3 sequence (whole entry): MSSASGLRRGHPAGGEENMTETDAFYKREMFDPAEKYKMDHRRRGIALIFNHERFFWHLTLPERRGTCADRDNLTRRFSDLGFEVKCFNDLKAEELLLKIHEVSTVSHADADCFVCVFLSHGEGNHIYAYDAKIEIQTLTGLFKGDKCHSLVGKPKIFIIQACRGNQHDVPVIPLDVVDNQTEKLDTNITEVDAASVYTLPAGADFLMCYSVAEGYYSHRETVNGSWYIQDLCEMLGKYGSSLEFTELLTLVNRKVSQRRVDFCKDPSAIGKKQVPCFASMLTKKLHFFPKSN

[1] = Cellular assay in a model of neuronal apoptosis involving cortical neurons exposed to concanavalin A; assay type: functional

Structure (SMILES) | k3/Ki (Caspase-3 (Homo sapiens)) [M⁻¹ s⁻¹] | k3/Ki (Caspase-8 (Homo sapiens)) [M⁻¹ s⁻¹] | IC50 (Jurkat) [µM] | k3/Ki (Caspase-1 (Mus musculus)) [M⁻¹ s⁻¹] | IC50 (Homo sapiens) [µM] | k3/Ki (Caspase-6 (Homo sapiens)) [M⁻¹ s⁻¹] | IC50 [1] [µM]
CC(C)[C@H](NC(=O)COc1cccc2ccccc12)C(=O)N[C@@H](CC(=O)O)C(=O)COc1ccc(C(=O)c2ccccc2)cc1 | 17700 | 21 | > 100 | 1520 |  |  | 
CC(C)[C@H](NC(=O)COc1cccc2ccccc12)C(=O)N[C@@H](CC(=O)O)C(=O)COP(=O)(c1ccccc1)c1ccccc1 | 351000 | 59300 | 18.4 | 143000 | 3.48 | 39700 | 
CC(C)[C@H](NC(=O)COc1cccc2ccccc12)C(=O)N[C@@H](CC(=O)O)C(=O)COc1cc(F)c(F)cc1F | 24400 | 668 | 39.3 | 11400 | 16.7 | 634 | 4.16
CC(=O)Nc1cccc(OCC(=O)[C@H](CC(=O)O)NC(=O)[C@@H](NC(=O)COc2cccc3ccccc23)C(C)C)c1 | 4900 |  | > 100 | 612 |  |  | > 50
CC(C)[C@H](NC(=O)COc1cccc2ccccc12)C(=O)N[C@@H](CC(=O)O)C(=O)COc1ccc2oc(=O)sc2c1 | 5890 | 130 | > 100 | 2240 | 25.7 | 81 | 
CC(C)[C@H](NC(=O)COc1cccc2ccccc12)C(=O)N[C@@H](CC(=O)O)C(=O)COc1cccc(F)c1F | 28800 | 197 |  | 14800 |  | 1610 | 5.2
CC(C)[C@H](NC(=O)COc1cccc2ccccc12)C(=O)N[C@@H](CC(=O)O)C(=O)COc1cccc(C(F)(F)F)c1 | 7980 | 150 | > 100 | 2450 | 16.6 |  | > 50
CC(C)[C@H](NC(=O)COc1cccc2ccccc12)C(=O)N[C@@H](CC(=O)O)C(=O)COc1ccc(F)cc1F | 21700 | 628 | 33.2 | 8400 | 17.6 |  | > 50
CC(C)[C@H](NC(=O)COc1cccc2ccccc12)C(=O)N[C@@H](CC(=O)O)C(=O)COc1cccc(OC(F)(F)F)c1 | 30600 | 359 | > 100 | 1410 | 15.4 |  | > 50
CC(C)[C@H](NC(=O)COc1cccc2ccccc12)C(=O)N[C@@H](CC(=O)O)C(=O)COc1cc(C(F)(F)F)cc(C(F)(F)F)c1 | 5350 | 68 | > 100 | 783 |  | 193 | > 50
CC(C)[C@H](NC(=O)COc1cccc2ccccc12)C(=O)N[C@@H](CC(=O)O)C(=O)COc1ccc(F)cc1 | 8560 | 699 | > 100 | 9120 | 14.3 |  | > 50
CC(C)[C@H](NC(=O)COc1cccc2ccccc12)C(=O)N[C@@H](CC(=O)O)C(=O)COc1cccc(C(F)(F)F)c1F | 33900 | 1030 | 50.4 | 7220 | 18.2 | 683 | 3.7
CC(C)[C@H](NC(=O)COc1cccc2ccccc12)C(=O)N[C@@H](CC(=O)O)C(=O)COc1ccccc1[N+](=O)[O-] | 73000 | 1810 | > 100 | 23500 | 27.7 | 10700 | 5.85
CC(C)[C@H](NC(=O)COc1cccc2ccccc12)C(=O)N[C@@H](CC(=O)O)C(=O)COc1ccc([N+](=O)[O-])cc1 | 8400 | 137 | > 100 | 6130 | 22.8 | 117 | 13.5
CC(C)[C@H](NC(=O)COc1cccc2ccccc12)C(=O)N[C@@H](CC(=O)O)C(=O)COc1c(F)c(F)c(F)c(F)c1F | 56600 | 8040 | 3.05 | 14700 | 8.89 | 13600 | 
CC(C)[C@H](NC(=O)COc1cccc2ccccc12)C(=O)N[C@@H](CC(=O)O)C(=O)COc1cc(F)cc(F)c1F | 60100 | 1470 | 30 | 14700 | 11.2 | 1510 | 3.75
CC(C)[C@H](NC(=O)COc1cccc2ccccc12)C(=O)N[C@@H](CC(=O)O)C(=O)COc1ccc(C(F)(F)F)cc1 | 13200 | 196 | > 100 | 2580 | 12.3 | 77 | > 50
CC(C)[C@H](NC(=O)COc1cccc2ccccc12)C(=O)N[C@@H](CC(=O)O)C(=O)COc1cc(F)cc(F)c1 | 9240 | 154 | > 100 | 2170 | 15.9 | 106 | 11.6
CC(C)[C@H](NC(=O)COc1cccc2ccccc12)C(=O)N[C@@H](CC(=O)O)C(=O)COc1c(F)cc(F)cc1F | 114000 | 9080 | 6.84 | 20700 | 14.9 | 5140 | 2.35
CC(C)[C@H](NC(=O)COc1cccc2ccccc12)C(=O)N[C@@H](CC(=O)O)C(=O)COc1c(Cl)cccc1Cl | 179000 | 2710 | 3 | 25300 | 15.3 | 87700 | 2.75
CC(C)[C@H](NC(=O)COc1cccc2ccccc12)C(=O)N[C@@H](CC(=O)O)C(=O)COc1ccc(C#N)cc1 | 10200 | 48 | > 100 | 3720 | 26.7 | 46 | > 50
CC(C)[C@H](NC(=O)COc1cccc2ccccc12)C(=O)N[C@@H](CC(=O)O)C(=O)COc1ccc(F)c(F)c1 | 6460 | 117 | > 100 | 1620 | 16.2 | 86 | 17
CC(C)[C@H](NC(=O)COc1cccc2ccccc12)C(=O)N[C@@H](CC(=O)O)C(=O)COc1ccc(F)c(F)c1F | 35800 | 769 | 35.8 | 11900 | 20.6 | 253 | > 50
CC(C)[C@H](NC(=O)COc1cccc2ccccc12)C(=O)N[C@@H](CC(=O)O)C(=O)COc1ccccc1F | 26800 | 233 | > 100 | 6020 | 15.7 |  | 15
CC(C)[C@H](NC(=O)COc1cccc2ccccc12)C(=O)N[C@@H](CC(=O)O)C(=O)COc1c(F)ccc(F)c1F | 188000 | 17000 | 1.2 | 47100 |  | 81700 | 2.43
CC(C)[C@H](NC(=O)COc1cccc2ccccc12)C(=O)N[C@@H](CC(=O)O)C(=O)COc1ccc(C(N)=O)cc1 | 17700 |  | > 100 | 3650 |  | 744 | > 50
CC(C)[C@H](NC(=O)COc1cccc2ccccc12)C(=O)N[C@@H](CC(=O)O)C(=O)COc1ccc(OC(F)(F)F)cc1 | 10500 | 2420 | 29.1 | 2360 |  | 776 | > 50
